Data taken from patent US8309556B2, “Use of compounds derived from pyrimidinetrione as acetyl cholinesterase inhibitors, compositions containing said derivatives, and the uses thereof” (priority 2005, dated 2012).

Experiments:
[1] = molecular target: T1, G119S-mutated recombinant Culex pipiens AChE1 (Culex pipiens, UniProt Q86GC8, G247S); test: biochemical
T1 construct: made in house; host or cells: Drosophila S2 cells (crude lysate supernatant)
Protocol: (§1) The inhibitory properties of the compounds of the preceding table I are tested with regard to the AChE activity by either using a normal or G119S-mutated recombinant AChE or using extracts of larvae of mosquitoes which are sensitive (carrying normal AChE) or resistant (carrying G119S-mutated AChE) to organophosphorus compounds and carbamates.
(§2) The AChE activity is measured using the method described by Bourguet et al., Pest Biochem. Physiol., 1996, 55, 122-128, and which refers to the spectroscopic method described by Ellman G. L. et al. (Biochem. Pharmacol., 1961, 7, 88-95) using acetylthiocholine as substrate.
(§3) The inhibitory properties of the compounds according to the invention with regard to the activity of a G119S-mutated or normal recombinant Culex pipiens AChE1 are tested according to protocol described by Weill et al., Nature, 2003, 423, 136-137.
(§4) Each compound according to the invention is tested at different concentrations on lysates of Drosophile S2 cells transfected with an empty expression vector or an expression vector expressing normal or mutated AChE1. After expression, the cells are centrifuged for 15 minutes at 14 000 rpm and are subsequently lysed in a 0.25 M phosphate buffer comprising 1% Triton X100.
(§5) 100 μl of supernatant originating from the centrifuging of the cell lysates at 10 000 rpm for 3 minutes are incubated for 15 minutes with 10 μl of each compound according to the invention at various concentrations.
(§6) The effectiveness of the various compounds with regard to the mutated AChE activity, relative to that of the normal AChE, is estimated by the sensitive/insensitive ratio.

[2] = tested on: G119S-mutated recombinant Culex pipiens AChE1; test: biochemical; settings: IC50 normal AChE1 relative to mutated AChE1, recombinant
Protocol: as §1, §2, §3, §4, §5, §6

[3] = tested on: AChE1 activity of extracts of Culex pipiens larvae resistant to propoxur (G119S-mutated AChE); test: biochemical; settings: IC50 on larval extracts, sensitive relative to resistant
Protocol: as §1, §2
(§7) Larvae of Culex pipiens mosquitoes which are sensitive or resistant to propoxur are milled in 400 μl of 0.25M phosphate buffer comprising 1% Triton X100. The homogenates are centrifuged at 10 000 rpm for 3 minutes.
(§8) The effectiveness of the various compounds with regard to the resistant larvae, relative to the sensitive larvae, is estimated by the sensitive/resistant ratio.

[4] = molecular target: T2, AChE1 activity of extracts of Culex pipiens larvae resistant to propoxur (G119S-mutated AChE) (Culex pipiens, UniProt Q86GC8, G247S); test: biochemical
T2 construct: from tissue; host or cells: whole larvae of propoxur-resistant Culex pipiens, Triton X100 homogenate supernatant
Protocol: as §1, §2, §7, §8

[5] = molecular target: T3, AChE1 activity of extracts of Culex pipiens larvae sensitive to propoxur (normal AChE) (Culex pipiens, UniProt Q86GC8); test: Inhibition of AChE1 activity in extracts of propoxur-sensitive mosquito larvae; format: biochemical; settings: extracts of propoxur-sensitive larvae, 15 minutes incubation; read-out: IC50, Sensitive larvae
T3 construct: from tissue; host or cells: whole larvae of propoxur-sensitive Culex pipiens, Triton X100 homogenate supernatant
Protocol: as §1, §2, §7, §8

[6] = molecular target: T4, normal recombinant Culex pipiens AChE1 (Culex pipiens, UniProt Q86GC8); test: Inhibition of normal recombinant AChE1 (lysates of transfected Drosophile S2 cells, Ellman method); format: biochemical
T4 construct: made in house; host or cells: Drosophila S2 cells (crude lysate supernatant)
Protocol: as §1, §2, §3, §4, §5, §6

| Compound | IC50 [1] [µM] | Sensitive/insensitive ratio [2] | Sensitive/resistant ratio [3] | IC50 [4] [µM] | IC50 [5] [µM] | IC50 [6] [µM] |
| --- | --- | --- | --- | --- | --- | --- |
| Cc1ccc(C=C2C(=O)NC(=O)N(c3ccc(C(C)C)cc3)C2=O)o1 [(7), 1-(4-isopropylphenyl)-5-[(5-methyl-2-furyl)methylene]-2,4,6(1H,3H,5H)-pyrimidinetrione] | 72 | 1.78 | 6.1 | 21 | 132 | 128 |
| Cc1ccc(C=C2C(=O)NC(=O)N(c3ccc(C)c(C)c3)C2=O)o1 [(17), 1-(3,4-dimethylphenyl)-5-[(5-methyl-2-furyl)methylene]-2,4,6(1H,3H,5H)-pyrimidinetrione] | 8.5 | 1.85 | 12.2 | 35 | 424 | 15.7 |
| O=C1NC(=O)N(c2ccccc2)C(=O)C1=Cc1ccco1 [(9), 5-(2-furylmethylene)-1-phenyl-2,4,6(1H,3H,5H)-pyrimidinetrione] | 737 | 1.89 | – | – | – | 1390 |
| CCc1ccc(N2C(=O)NC(=O)C(=Cc3ccc(C)o3)C2=O)cc1 [(19), 1-(4-ethylphenyl)-5-[(5-methyl-2-furyl)methylene]-2,4,6(1H,3H,5H)-pyrimidinetrione] | 3.4 | 0.58 | 16.7 | 19 | 312 | 1.9 |
| Cc1ccc(C=C2C(=O)NC(=O)N(Cc3ccco3)C2=O)o1 [(18), 1-(2-furylmethyl)-5-[(5-methyl-2-furyl)methylene]-2,4,6(1H,3H,5H)-pyrimidinetrione] | 4.8 | 2.10 | 7.1 | 37 | 260 | 10.1 |
| Cc1ccc(C=C2C(=O)NC(=O)N(c3ccc(F)cc3)C2=O)s1 [(16), 1-(4-fluorophenyl)-5-[(5-methyl-2-thienyl)methylene]-2,4,6(1H,3H,5H)-pyrimidinetrione] | 8.6 | 1.99 | 22.5 | 22 | 490 | 17.1 |
| CN1C(=O)C(=Cc2ccco2)C(=O)N(C)C1=O [(10), 5-(2-furylmethylene)-1,3-dimethyl-2,4,6(1H,3H,5H)-pyrimidinetrione] | 357 | 3.34 | – | – | – | 1190 |
| Cc1ccc(N2C(=O)NC(=O)C(=Cc3ccc(C)o3)C2=O)cc1 [(11), 5-[(5-methyl-2-furyl)methylene]-1-(4-methylphenyl)-2,4,6(1H,3H,5H)-pyrimidinetrione] | 3.5 | 1.27 | 7.7 | 14 | 111 | 4.5 |
| CCOc1ccc(N2C(=O)NC(=O)C(=Cc3ccc(C)o3)C2=O)cc1 [(13), 1-(4-ethoxyphenyl)-5-[(5-methyl-2-furyl)methylene]-2,4,6(1H,3H,5H)-pyrimidinetrione] | 2.9 | 2.40 | 2.7 | 89 | 236 | 7.1 |
| Cc1ccc(C=C2C(=O)NC(=O)N(c3ccc(Cl)cc3)C2=O)s1 [(15), 1-(4-chlorophenyl)-5-[(5-methyl-2-thienyl)methylene]-2,4,6(1H,3H,5H)-pyrimidinetrione] | 8.7 | 1.00 | 6.9 | 177 | 1220 | 8.7 |
| Cc1ccc(C=C2C(=O)NC(=O)N(c3ccc(Br)cc3)C2=O)s1 [(14), 1-(4-bromophenyl)-5-[(5-methyl-2-thienyl)methylene]-2,4,6(1H,3H,5H)-pyrimidinetrione] | 11.1 | 0.87 | 15.0 | 142 | 2120 | 9.6 |
